Marks after values point to notes of the source that are not given here.
Test system: Landrace x Large White binary sows
Experiment: Pregnancy, farrowing rate, litter size and piglet index of gilts in batch farrowing with FTAI (Example 3)
Format: in vivo, pigs
Protocol: The term “farrowing rate”, as used herein, was calculated as the percentage of the number of farrowed sows divided by the number of mated gilts and sows.
For example, in the case of a certain batch of sows, the farrowing rate=the number of farrowing sows/the number of mated gilts and sows×100%.
The term “Piglet Index (PI)”, as used herein, refers to the total number of live piglets born per 100 gilts or sows that have been naturally mated or artificially inseminated. The calculation method is the average number of born alive per litter multiplied by the farrowing rate and then multiplied by the total gilts or sows (100).
The breed of the gilts used in this example was Landrace x Large White binary sows, the reserve sows were randomly divided into the following 4 groups, and the treatment method for each group was as follows:
batch farrowing with FTAI: the sows were fed with an altrenogest oral solution at 20 mg/gilt at the same time every day, for 18 days; PMSG at 1000 IU/gilt was injected intramuscularly 42 h after the last feeding with altrenogest, GnRH at 100 μg/gilt was further injected intramuscularly 80 h after the intramuscular injection of PMSG, a first timed insemination was performed 24 h after the injection of GnRH, and a second timed insemination was performed after 24 h.
Treatment group 1 (batch farrowing with FTAI, with supplementing with 1-[bis(4-cyanophenyl)methyl]-1,2,4-triazole (12 μg/kg·BW, orally once)): The hormone treatment and mating schemes for gilts were the same as those for gilts in the batch farrowing with FTAI. The gilts were administered orally once with 1-[bis(4-cyanophenyl)methyl]-1,2,4-triazole at 12 μg/kg·BW 8 h after the injection of PMSG.
Treatment group 2 (batch farrowing with FTAI, with supplementing with 1-[bis (4-cyanophenyl)methyl]-1,2,4-triazole (12 μg/kg·BW, orally twice)): The hormone treatment and mating schemes for gilts were the same as those for gilts in the batch farrowing with FTAI. The gilts were administered orally once with 1-[bis(4-cyanophenyl)methyl]-1,2,4-triazole at 12 μg/kg·BW 8 h after the injection of PMSG, and then orally once with 1-[bis(4-cyanophenyl)methyl]-1,2,4-triazole at 12 μg/kg·BW after another 24 h.
Treatment group 3 (batch farrowing with FTAI, supplemented with 1-[bis(4-cyanophenyl)methyl]-1,2,4-triazole (20 μg/kg·BW, orally in a single dose)): The hormone treatment and mating schemes for gilts were the same as those for gilts in the batch farrowing with FTAI. The gilts were administered orally once with 1-[bis(4-cyanophenyl)methyl]-1,2,4-triazole at 20 μg/kg·BW 8 h after the injection of PMSG.
The farrowing rate and piglet index of sows in the different treatment groups were calculated as follows:
wherein Piglet Index (PI), a comprehensive index to measure the overall reproductive performance of a sow population at present in production, refers to the number born alive from every 100 gilts or sows, who have undergone natural mating or artificial insemination.

[1] = Example 3, low-dose (treatment groups 1, 2, and 3), compared with batch farrowing with FTAI
[2] = Example 3, treatment group 1 (12 μg/kg·BW orally once), compared with batch farrowing with FTAI
[3] = Example 3, treatment groups 2 and 3
[4] = Example 3 Treatment group 1: 12 μg/kg·BW orally once, gilts
[5] = Example 3 Treatment group 2: 12 μg/kg·BW orally twice, 24 h apart, gilts
[6] = Example 3 Treatment group 3: 20 μg/kg·BW orally in a single dose, gilts

Q: Which results are given for N#Cc1ccc(C(c2ccc(C#N)cc2)n2cncn2)cc1 [1-[bis(4-cyanophenyl)methyl]-1,2,4-triazole]?
A: estrus rate (Example 3, 20 μg/kg·BW group compared with 12 μg/kg·BW group): slightly lower; Piglet index [1]: significantly increased; farrowing rate [1]: significantly increased; pregnancy rate [1]: significantly increased; Healthy litter size [2]: significantly higher; number born alive [2]: significantly higher; Healthy litter size [3]: increasing trend; number born alive [3]: increasing trend; estrus rate (Example 3, treatment groups with different doses, compared with batch farrowing with FTAI): no significant difference; Delivery rate (%) [4]: 88.00^b %; Estrus rate (%) [4]: 92.00%; Healthy litter size [4]: 12.12 ± 0.32^b; Live litter size [4]: 12.44 ± 0.30^b; Piglet index [4]: 1094; Pregnancy rate (%) [4]: 92.00^b %; Stillborn + mummy [4]: 1.80 ± 0.22; Total number born litter size [4]: 13.96 ± 0.30; Weak litter [4]: 0.24 ± 0.10; Delivery rate (%) [5]: 83.33^b %; Estrus rate (%) [5]: 93.75%; Healthy litter size [5]: 11.72 ± 0.43^a; Live litter size [5]: 12.00 ± 0.45^a; Piglet index [5]: 1000; Pregnancy rate (%) [5]: 95.83^b %; Stillborn + mummy [5]: 1.56 ± 0.16; Total number born litter size [5]: 13.76 ± 0.62; Weak litter [5]: 0.28 ± 0.09; Delivery rate (%) [6]: 81.48^b %; Estrus rate (%) [6]: 88.89%; Healthy litter size [6]: 11.76 ± 0.37^a; Live litter size [6]: 12.04 ± 0.42^a; Piglet index [6]: 981; Pregnancy rate (%) [6]: 85.19^b %; Stillborn + mummy [6]: 1.88 ± 0.39; Total number born litter size [6]: 14.04 ± 0.53; Weak litter [6]: 0.40 ± 0.10; live piglets (weaned piglets) increased by every 100 gilts (per 100 gilts, method of the disclosure versus batch farrowing with FTAI): 190 live piglets

Reference: patent US12678488B2, “Batch management method for improving farrowing rate or number of piglets born alive in swine” (priority 2024, dated 2026)
